Data on two compounds can be found in US20090143410A1, “Isoxazolines for Controlling Invertebrate Pests” (priority 2005, published 2009).

This assay relates to potato leafhopper (Empoasca fabae Harris). In words: Test D: control of potato leafhopper on bean plant, contact and/or systemic. In kind it is in vivo. The settings on record: sprayed at 50 ppm, 18 to 21 day old adults on Longio bean plant, 6 days, 19-21° C., 50-70% relative humidity, read-out: pest control: mortality. How it is done: Test compounds were formulated using a solution containing 10% acetone, 90% water and 300 ppm X-77™ Spreader Lo-Foam Formula non-ionic surfactant containing alkylarylpolyoxyethylene, free fatty acids, glycols and isopropanol (Loveland Industries, Inc. Greeley, Colo., USA). The formulated compounds were applied in 1 mL of liquid through a SUJ2 atomizer nozzle with ⅛ JJ custom body (Spraying Systems Co. Wheaton, Ill., USA) positioned 1.27 cm (0.5 inches) above the top of each test unit. All experimental compounds in these tests were sprayed at 250 ppm replicated three times. After spraying of the formulated test compound, each test unit was allowed to dry for 1 h and then a black, screened cap was placed on top. The test units were held for 6 days in a growth chamber at 25° C. and 70% relative humidity. Plant feeding damage was then visually assessed based on foliage consumed.
For evaluating control of potato leafhopper (Empoasca fabae Harris) through contact and/or systemic means, the test unit consisted of a small open container with a 5-6-day old Longio bean plant (primary leaves emerged) inside. White sand was added to the top of the soil and one of the primary leaves was excised prior to application. […] Each test unit was then visually assessed for insect mortality.

With `O=C(NCc1ccccn1)c1cnc(C2=NOC(c3cc(Cl)cc(Cl)c3)(C(F)(F)F)C2)nc1C(F)(F)F` (centres unmarked) [Compound 7, 2-[5-(3,5-dichlorophenyl)-4,5-dihydro-5-(trifluoromethyl)-3-isoxazolyl]-N-(2-pyridinylmethyl)-4-(trifluoromethyl)-5-pyrimidinecarboxamide], the mortality at 50 ppm was not below 80%.
Consider `O=C(NCC(F)(F)F)c1cnc(C2=NOC(c3cc(Cl)cc(Cl)c3)(C(F)(F)F)C2)nc1C(F)(F)F` (centres unmarked) [Compound 10, 2-[5-(3,5-dichlorophenyl)-4,5-dihydro-5-(trifluoromethyl)-3-isoxazolyl]-N-(2,2,2-trifluoroethyl)-4-(trifluoromethyl)-5-pyrimidinecarboxamide], for which the mortality at 50 ppm is not below 80%.

The term mortality denotes the share of the test organisms that died.
